Paper PMC9604388, “Purification and Functional Characterization of a Soluble Trehalase in Lissorhoptrus oryzophilus (Coleoptera: Curculionidae)” (Insects, 2022)

System: T1, LoTRE1
T1 construct: whole coding region incl. predicted signal peptide (1-25) by primers (ORF 1839 bp, 612 aa, 70833 Da); E. coli Rosetta (DE3), Ni-NTA; ~70 kDa
Test: […],5-dinitrosalicylic acid assay of released glucose
Assay type: biochemical, Lissorhoptrus oryzophilus
Details: PBS, pH 7.0, 50 °C, 30 min; substrate 1-10 mmol/L (Km above tested range)

## OC[C@H]1O[C@H](O[C@H]2O[C@H](CO)[C@@H](O)[C@H](O)[C@H]2O)[C@H](O)[C@@H](O)[C@@H]1O [trehalose]
  Km: 48.6 mM
